Laboratory results: paper PMC10298626 (International Journal of Molecular Sciences, 2023)
Marks after values point to notes of the source that are not given here.

What was measured:
in vitro = format: cell-based; conditions: mouse, RAW264.7 cells, then LPS (500 ng/mL) 20 h, read-out: Cell viability, Average (%); for viability at 22 h, 20 μM: 20 μM for 2 h; for viability at 22 h, 40 μM: 40 μM for 2 h; for viability at 22 h, 80 μM: 80 μM for 2 h
Procedure: To investigate the anti-inflammatory activity of coumarin derivatives, cell viability was analyzed by treating RAW264.7 cells with 23 types of coumarin derivatives at concentrations of 20, 40, and 80 μM for 2 h and with LPS for 20 h.
Mouse macrophage RAW264.7 cells were purchased from the Korea Cell Line Bank (Seoul, Republic of Korea) and cultured in Dulbecco’s Modified Eagle Medium (Corning, NY, USA) containing 10% fetal bovine serum and 1% penicillin/streptomycin at 37 °C and 5% CO2. The medium was changed every 2 days and subcultured when the cells grew > 80%.
EZ-Cytox cell viability assay kit (Dogen, Suwon, Republic of Korea) was used to measure cell viability according to the manufacturer’s instructions. RAW264.7 cells were seeded into a 96-well plate (1 × 10^5 cells/well) and treated with coumarin derivatives at concentrations of 20, 40, and 80 μM. After 2 h, the cells were treated with LPS (500 ng/mL) and cultured for 24 h in a 37 °C, 5% CO2 incubator. The culture supernatant was treated with 10% EZ-Cytox reagent, and a microplate reader was used to measure the absorbance at 450 nm.

[1] = system: LPS-stimulated RAW264.7 cells; test: NO production (Griess reagent) in LPS-stimulated RAW264.7 cells; format: cell-based, Mouse; conditions: for NO production, Average / NO production, Average (μM): then LPS (500 ng/mL) 20 h, LPS alone 25.9, control 3.1; for Anti-inflammatory effect (inhibition of NO secretion), in words: 20, 40, and 80 μM, compared with LPS-only treatment
Procedure: A high concentration of NO promotes the synthesis of inflammatory mediators, leading to an inflammatory response, and has been reported to be a cause of various immune diseases. Therefore, this study was conducted to investigate the effect of coumarin derivatives on the production of NO induced by LPS stimulation in RAW264.7 cells. The cells were treated with coumarin derivatives at concentrations of 20, 40, and 80 μM for 2 h. Then, the cells were treated with LPS. After 20 h, the culture supernatant was recovered, and the amount of NO was measured. […] The anti-inflammatory activity of these derivatives depended on the position of the substituted group rather than the electron density of the substituted group.
The Griess reagent was used to measure NO production. RAW264.7 cells were seeded into a 96-well plate and cultured for 24 h. The cells were treated with 20, 40, and 80 μM of coumarin derivatives, cultured for 2 h, and then cultured with LPS (500 ng/mL) for 20 h. The same amount of cell supernatant and Griess reagent were used for the reaction, and absorbance was measured at 540 nm.

Row | Compound | viability at 22 h, 20 μM (in vitro) | viability at 22 h, 40 μM (in vitro) | viability at 22 h, 80 μM (in vitro) | NO production, Average ([1]; 20 μM for 2 h) | NO production, Average ([1]; 40 μM for 2 h) | NO production, Average ([1]; 80 μM for 2 h) | Anti-inflammatory effect (inhibition of NO secretion), in words [1] | NO production, Average (μM) ([1]; 40 μM for 2 h) | NO production, Average (μM) ([1]; 80 μM for 2 h)
1 | N#CC1=C(N)Oc2c(c(=O)oc3ccccc23)C1c1ccccc1F (centres unmarked) [Coumarin derivative 1] | 90.4% | 96% | 109% | 29.50 µM | 29.82 µM | 28.71 µM | almost no anti-inflammatory effect | – | –
2 | N#CC1=C(N)Oc2c(c(=O)oc3ccccc23)C1c1ccc(F)cc1 (centres unmarked) [Coumarin derivative 3] | 95.4% | 101% | 110% | 27.60 µM | 28.86 µM | 22.84 µM | – | – | –
3 | N#CC1=C(N)Oc2c(c(=O)oc3ccccc23)C1c1ccccc1C(F)(F)F (centres unmarked) [Coumarin derivative 4] | 79.9% | 91.2% | 88.7% | 15.71 µM | – | – | – | 17.45 *** μM | 18.09 *** μM
4 | N#CC1=C(N)Oc2c(c(=O)oc3ccccc23)C1c1cccc(C(F)(F)F)c1 (centres unmarked) [Coumarin derivative 5] | 86.8% | 110% | 113% | 30.77 µM | 28.71 µM | 25.38 µM | almost no anti-inflammatory effects | – | –
5 | N#CC1=C(N)Oc2c(c(=O)oc3ccccc23)C1c1ccc(C(F)(F)F)cc1 (centres unmarked) [Coumarin derivative 6] | 98.7% | 111% | 111% | 30.92 µM | 26.49 µM | – | weak anti-inflammatory effects at high concentrations | – | 16.82 *** μM
6 | N#CC1=C(N)Oc2c(c(=O)oc3ccccc23)C1c1ccccc1Cl (centres unmarked) [Coumarin derivative 7] | 106% | 121% | 124% | 32.83 µM | 29.66 µM | 27.60 µM | – | – | –
7 | N#CC1=C(N)Oc2c(c(=O)oc3ccccc23)C1c1ccc(Cl)cc1 (centres unmarked) [Coumarin derivative 8] | 103% | 107% | 93.5% | 32.19 µM | 24.11 µM | – | – | – | 10.64 *** μM
8 | Cc1ccccc1C1C(C#N)=C(N)Oc2c1c(=O)oc1ccccc21 (centres unmarked) [Coumarin derivative 9] | 118% | 111% | 112% | 23.27 µM | 24.10 µM | 21.32 µM | almost no anti-inflammatory effect | – | –
9 | Cc1cccc(C2C(C#N)=C(N)Oc3c2c(=O)oc2ccccc32)c1 (centres unmarked) [Coumarin derivative 10] | 111% | 113% | 104% | 24.24 µM | – | – | inhibited NO secretion in a concentration-dependent manner | 20.34 ** μM | 9.21 *** μM
10 | Cc1ccc(C2C(C#N)=C(N)Oc3c2c(=O)oc2ccccc32)cc1 (centres unmarked) [Coumarin derivative 11] | 113% | 108% | 122% | 24.80 µM | 26.47 µM | 26.19 µM | – | – | –
11 | N#CC1=C(N)Oc2c(c(=O)oc3ccccc23)C1c1ccccc1OC(F)(F)F (centres unmarked) [Coumarin derivative 12] | 99.2% | 102% | 106% | 16.58 µM | – | – | showed anti-inflammatory effects | 17.28 *** μM | 17.98 *** μM
12 | N#CC1=C(N)Oc2c(c(=O)oc3ccccc23)C1c1cccc(OC(F)(F)F)c1 (centres unmarked) [Coumarin derivative 13] | 114% | 118% | 112% | 27.17 µM | 26.33 µM | 24.94 µM | almost no anti-inflammatory effects | – | –
13 | N#CC1=C(N)Oc2c(c(=O)oc3ccccc23)C1c1ccc(OC(F)(F)F)cc1 (centres unmarked) [Coumarin derivative 14] | 110% | 95.8% | 102% | 27.72 µM | 24.52 µM | – | weak anti-inflammatory effects at high concentrations | – | 16.31 *** μM
14 | COc1ccccc1C1C(C#N)=C(N)Oc2c1c(=O)oc1ccccc21 (centres unmarked) [Coumarin derivative 15] | 109% | 112% | 114% | 26.33 µM | 22.71 µM | – | showed anti-inflammatory effects | – | 19.37 ** μM
15 | COc1cccc(C2C(C#N)=C(N)Oc3c2c(=O)oc2ccccc32)c1 (centres unmarked) [Coumarin derivative 16] | 107% | 102% | 96.3% | 27.58 µM | 26.33 µM | – | – | – | 16.17 *** μM
16 | COc1ccc(C2C(C#N)=C(N)Oc3c2c(=O)oc2ccccc32)cc1 (centres unmarked) [Coumarin derivative 17] | 122% | 122% | 137% | 28.68 µM | 26.11 µM | – | weak anti-inflammatory effects at high concentrations | – | 20.16 ** μM
17 | N#CC1=C(N)Oc2c(c(=O)oc3ccccc23)C1c1ccccc1Br (centres unmarked) [Coumarin derivative 18] | 129% | 130% | 138% | 28.03 µM | 27.87 µM | 25.95 µM | almost no anti-inflammatory effect | – | –
18 | N#CC1=C(N)Oc2c(c(=O)oc3ccccc23)C1c1cccc(Br)c1 (centres unmarked) [Coumarin derivative 19] | 117% | 119% | 120% | 27.07 µM | 17.76 µM | – | inhibited NO secretion in a concentration-dependent manner | – | 10.05 *** μM
19 | N#CC1=C(N)Oc2c(c(=O)oc3ccccc23)C1c1ccc(Br)cc1 (centres unmarked) [Coumarin derivative 20] | 114% | 124% | 135% | 31.89 µM | 30.12 µM | – | – | – | 19.52 ** μM
20 | N#CC1=C(N)Oc2c(c(=O)oc3ccccc23)C1c1cccc(C#N)c1 (centres unmarked) [Coumarin derivative 21] | 131% | 122% | 102% | 28.68 µM | 22.73 µM | – | weak anti-inflammatory effects | – | 11.97 *** μM
21 | N#CC1=C(N)Oc2c(c(=O)oc3ccccc23)C1c1ccc(C#N)cc1 (centres unmarked) [Coumarin derivative 22] | 120% | 122% | 114% | 31.41 µM | 28.84 µM | 22.89 µM | weak anti-inflammatory effects at high concentrations | – | –
